Data taken from patent US10294229B2, “Heteroaryl substituted aminopyridine compounds” (BRISTOL-MYERS SQUIBB COMPANY, priority 2015, dated 2019).
pEC50, pIC50: −log10 of the molar value.

Experiments:
[1] = test system: Human whole blood stimulated with a TLR2 agonist (lipoteichoic acid), IL-6 levels; assay: IRAK4 Whole Blood Assay; assay type: cell-based; details: lipoteichoic acid 10 μg/mL
How it was run: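 IL-6 was quantified by cytometric bead assay in supernatants of human blood (ACD-A) stimulated for 5 h with lipoteichoic acid at 10 μg/mL final. Compound exposure preceded stimulation for 60 min at 37 °C, 5% CO2.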

[2] = test system: Caco-2 cells; assay: Caco-2 Permeability Assay; assay type: in vitro ADME; details: test compound 3 μM
How it was run: (§1)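 Bidirectional permeability measured over 2 h at 37° C, compound dosed at 3 μM in the donor compartment (apical for absorptive, basolateral for secretive) with plain buffer as receiver.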

[3] = target: IRAK4 (Homo sapiens (Human), UniProt Q9NWZ3); assay: IRAK4 Inhibition Assay; assay type: biochemical; details: ATP 500 μM; IRAK4 0.6 nM
How it was run: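 Mobility-shift kinase assay: 0.6 nM IRAK4, 500 μM ATP, 1.5 μM fluorescent peptide, 60 min, room temperature. Percent inhibition was normalised between enzyme-free and DMSO-only wells.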

[4] = Caco-2 Permeability Assay; assay type: in vitro ADME; details: human, Caco-2, test compound 3 μM
How it was run: as §1

Sequence of IRAK4 (Q9NWZ3 whole entry, species assumed): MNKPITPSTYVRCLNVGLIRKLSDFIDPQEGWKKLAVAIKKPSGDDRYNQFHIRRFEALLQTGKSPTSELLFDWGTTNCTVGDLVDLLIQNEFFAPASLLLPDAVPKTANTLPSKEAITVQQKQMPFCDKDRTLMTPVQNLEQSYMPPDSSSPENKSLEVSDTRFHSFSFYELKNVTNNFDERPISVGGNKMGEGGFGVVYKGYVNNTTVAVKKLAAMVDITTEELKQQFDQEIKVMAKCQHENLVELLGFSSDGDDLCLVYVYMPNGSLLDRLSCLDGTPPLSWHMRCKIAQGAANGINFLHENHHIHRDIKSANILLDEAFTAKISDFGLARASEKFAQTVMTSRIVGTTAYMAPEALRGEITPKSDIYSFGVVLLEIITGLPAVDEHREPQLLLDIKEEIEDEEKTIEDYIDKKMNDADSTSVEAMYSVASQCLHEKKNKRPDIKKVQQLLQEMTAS

Row | Structure (SMILES) | pEC50 [1] | Caco-2 Permeability [2] [nm/s] | pIC50 [3] | pEC50 ([1]; listed as 400, Isomer 2) | Caco-2 Permeability ([2]; listed as 400, Isomer 2) [nm/s] | pEC50 ([1]; Homo sapiens) | Papp at 2 h, 3 µM [4] [×10⁻⁶ cm/s]
1 | CC(C)Nc1cc(-n2ncc3cc(C#N)cnc32)ncc1-c1cn(CC2CC2(F)F)nn1 (single isomer, unassigned) [Example 32, 1-(5-(1-((2,2-difluorocyclopropyl)methyl)-1H-1,2,3-triazol-4-yl)-4-(isopropylamino)pyridin-2-yl)-1H-pyrazolo[3,4-b]pyridine-5-carbonitrile] | 6.43 | 162 | 8.30 | – | – | – | –
2 | CC(C)Nc1cc(-n2ncc3cc(C#N)cnc32)ncc1-c1cc(C2CCCCN2)no1 [Example 413, (S)-1-(4-(isopropylamino)-5-(3-(piperidin-2-yl)isoxazol-5-yl)pyridin-2-yl)-1H-pyrazolo[3,4-b]pyridine-5-carbonitrile] | 6.52 | 139 | 8.30 | – | – | – | –
3 | CC(=O)N1CCC[C@@H](c2cc(-c3cnc(-n4ncc5cc(C#N)cnc54)cc3NC(C)C)on2)C1 [Example 409, (R)-1-(5-(3-(1-acetylpiperidin-3-yl)isoxazol-5-yl)-4-(isopropylamino)pyridin-2-yl)-1H-pyrazolo[3,4-b]pyridine-5-carbonitrile] | 6.33 | 302 | 8.70 | – | – | – | –
4 | CCC(C)(O)Cn1cc(-c2cnc(-n3ncc4cc(C#N)cnc43)cc2NC(C)C)nn1 (single isomer, unassigned) [Example 93, 1-(5-(1-(2-hydroxy-2-methylbutyl)-1H-1,2,3-triazol-4-yl)-4-(isopropylamino)pyridin-2-yl)-1H-pyrazolo[3,4-b]pyridine-5-carbonitrile] | 6.55 | 115 | 8.00 | – | – | – | –
5 | CCNc1cc(-n2ncc3cc(C#N)cnc32)ncc1C1=NOC(CCC(C)(C)O)C1 (centres unmarked) [Example 441, 1-(4-(ethylamino)-5-(5-(3-hydroxy-3-methylbutyl)-4,5-dihydroisoxazol-3-yl)pyridin-2-yl)-1H-pyrazolo[3,4-b]pyridine-5-carbonitrile] | 6.59 | 317 | 8.70 | – | – | – | –
6 | CC(C)Nc1cc(-n2ncc3cc(C#N)cnc32)ncc1-c1cn(C(C)C)nn1 [Example 213, 1-(5-(1-isopropyl-1H-1,2,3-triazol-4-yl)-4-(isopropylamino)pyridin-2-yl)-1H-pyrazolo[3,4-b]pyridine-5-carbonitrile] | – | – | 8.30 | – | – | 5.76 | 19.3
7 | CC(C)(O)CCc1cn(-c2cnc(-n3ncc4cc(C#N)cnc43)cc2NC2CCC(F)(F)C2)nn1 (single isomer, unassigned) [Example 347, 1-(4-((3,3-difluorocyclopentyl)amino)-5-(4-(3-hydroxy-3-methylbutyl)-1H-1,2,3-triazol-1-yl)pyridin-2-yl)-1H-pyrazolo[3,4-b]pyridine-5-carbonitrile] | – | – | 8.70 | – | – | 6.37 | 9.7
8 | CC(C)Nc1cc(-n2ncc3cc(C#N)cnc32)ncc1-n1cc(C2CCN(CC(F)F)CC2)nn1 [Example 336, 1-(5-(4-(1-(2,2-difluoroethyl)piperidin-4-yl)-1H-1,2,3-triazol-1-yl)-4-(isopropylamino)pyridin-2-yl)-1H-pyrazolo[3,4-b]pyridine-5-carbonitrile] | – | – | 8.15 | – | – | 6.66 | 25
9 | CC(F)Cn1cc(-c2cnc(-n3ncc4cc(C#N)cnc43)cc2NC(C)C)nn1 (single isomer, unassigned; enantiomer 1) [Example 166, 1-(5-(1-(2-fluoropropyl)-1H-1,2,3-triazol-4-yl)-4-(isopropylamino)pyridin-2-yl)-1H-pyrazolo[3,4-b]pyridine-5-carbonitrile, enantiomer 1] | 6.96 | – | 8.22 | – | – | – | 36.1
10 | CC(C)Nc1cc(-n2ncc3cc(C#N)cnc32)ncc1-n1cc(CCCCO)nn1 [Example 311, 1-(5-(4-(4-hydroxybutyl)-1H-1,2,3-triazol-1-yl)-4-(isopropylamino)pyridin-2-yl)-1H-pyrazolo [3,4-b]pyridine-5-carbonitrile] | – | – | 8.22 | – | – | 6.92 | 6.4
11 | CC(C)Nc1cc(-n2ncc3cc(C#N)c(N)nc32)ncc1-n1cc(CCC(C)(C)O)nn1 [Example 371, 6-amino-1-(5-(4-(3-hydroxy-3-methylbutyl)-1H-1,2,3-triazol-1-yl)-4-(isopropylamino)pyridin-2-yl)-1H-pyrazolo[3,4-b]pyridine-5-carbonitrile] | – | – | 9.00 | – | – | 6.89 | < 1.5
12 | CCOCCn1cc(-c2cnc(-n3ncc4cc(C#N)cnc43)cc2NC(C)C)nn1 [Example 122, 1-(5-(1-(2-ethoxyethyl)-1H-1,2,3-triazol-4-yl)-4-(isopropylamino)pyridin-2-yl)-1H-pyrazolo[3,4-b]pyridine-5-carbonitrile] | – | – | 8.22 | – | – | 6.23 | 32.2
13 | CC(=O)N1C2CCC1CC(c1cc(-c3cnc(-n4ncc5cc(C#N)cnc54)cc3NC(C)C)on1)C2 (centres unmarked) [Example 419, 1-(5-(3-(8-acetyl-8-azabicyclo[3.2.1]octan-3-yl)isoxazol-5-yl)-4-(isopropylamino)pyridin-2-yl)-1H-pyrazolo[3,4-b]pyridine-5-carbonitrile] | – | – | 8.70 | – | – | 6.37 | 19.9
14 | CCCn1cc(-c2cnc(-n3ncc4cc(C#N)c(N)nc43)cc2NC(C)C)nn1 [Example 33, 6-amino-1-(4-(isopropylamino)-5-(1-propyl-1H-1,2,3-triazol-4-yl)pyridin-2-yl)-1H-pyrazolo[3,4-b]pyridine-5-carbonitrile] | – | – | 8.52 | – | – | 5.43 | 16.7
15 | CCCn1cc(-c2cnc(-n3ncc4cc(C#N)cnc43)cc2NCC)nn1 [Example 54, 1-(4-(ethylamino)-5-(1-propyl-1H-1,2,3-triazol-4-yl)pyridin-2-yl)-1H-pyrazolo[3,4-b]pyridine-5-carbonitrile] | – | – | 8.05 | – | – | 5.93 | 40.8

Continued, values first:

Row | pEC50 [1] | Caco-2 Permeability [2] [nm/s] | pIC50 [3] | pEC50 ([1]; listed as 400, Isomer 2) | Caco-2 Permeability ([2]; listed as 400, Isomer 2) [nm/s] | pEC50 ([1]; Homo sapiens) | Papp at 2 h, 3 µM [4] [×10⁻⁶ cm/s] | Structure (SMILES)
16 | 6.60 | 310 | – | – | – | – | – | CC(C)Nc1cc(-n2ncc3cc(C#N)cnc32)ncc1-c1cc(CC(C)(C)O)on1 [Example 439, 1-(5-(5-(2-hydroxy-2-methylpropyl)isoxazol-3-yl)-4-(isopropylamino)pyridin-2-yl)-1H-pyrazolo[3,4-b]pyridine-5-carbonitrile]
17 | – | – | 8.22 | 6.57 | 530 | – | – | CC(C)Nc1cc(-n2ncc3cc(C#N)cnc32)ncc1-c1cc(C2COCCN2)no1 (single isomer, unassigned) [Example 400, Isomer 2, 1-(4-(isopropylamino)-5-(3-(morpholin-3-yl)isoxazol-5-yl)pyridin-2-yl)-1H-pyrazolo[3,4-b]pyridine-5-carbonitrile]
18 | 6.60 | 35 | 8.70 | – | – | – | – | CC(=O)N1CCCC(n2cc(-c3cnc(-n4ncc5cc(C#N)cnc54)cc3NC(C)C)nn2)C1 (centres unmarked) [Example 161, 1-(5-(1-(1-acetylpiperidin-3-yl)-1H-1,2,3-triazol-4-yl)-4-(isopropylamino)pyridin-2-yl)-1H-pyrazolo[3,4-b]pyridine-5-carbonitrile]
19 | – | – | 8.70 | – | – | 5.78 | 7.3 | CC(C)Nc1cc(-n2ncc3cc(C#N)cnc32)ncc1-c1cn([C@H]2CCCC[C@H]2O)nn1 [Example 216, 1-(5-(1-((1S,2R)-2-hydroxycyclohexyl)-1H-1,2,3-triazol-4-yl)-4-(isopropylamino)pyridin-2-yl)-1H-pyrazolo[3,4-b]pyridine-5-carbonitrile]
20 | – | – | 8.70 | – | – | 6.60 | 9.1 | CC(C)Nc1cc(-n2ncc3cc(C#N)cnc32)ncc1-c1cn([C@H]2CC[C@H](NCC(F)F)CC2)nn1 [Example 394, 1-(5-(1-((1r,4r)-4-((2,2-difluoroethyl)amino)cyclohexyl)-1H-1,2,3-triazol-4-yl)-4-(isopropylamino)pyridin-2-yl)-1H-pyrazolo[3,4-b]pyridine-5-carbonitrile]
21 | – | – | 7.82 | – | – | 6.48 | 7.8 | CCCc1cn(-c2cnc(-n3ncc4cc(C#N)cnc43)cc2NC(C)C)nn1 [Example 263, 1-(4-(isopropylamino)-5-(4-propyl-1H-1,2,3-triazol-1-yl)pyridin-2-yl)-1H-pyrazolo[3,4-b]pyridine-5-carbonitrile]
22 | – | – | 8.70 | – | – | 6.54 | 2.9 | CC(C)Nc1cc(-n2ncc3cc(C#N)cnc32)ncc1-c1cn(CCCCO)nn1 [Example 124, 1-(5-(1-(4-hydroxybutyl)-1H-1,2,3-triazol-4-yl)-4-(isopropylamino)pyridin-2-yl)-1H-pyrazolo[3,4-b]pyridine-5-carbonitrile]
23 | – | – | 8.70 | – | – | 7.00 | 26.7 | CCCn1cc(-c2cnc(-n3cnc4cc(C#N)cnc43)cc2N[C@@H](C)CO)nn1 [Example 53, (S)-3-(4-((1-hydroxypropan-2-yl)amino)-5-(1-propyl-1H-1,2,3-triazol-4-yl)pyridin-2-yl)-3H-imidazo [4,5-b]pyridine-6-carbonitrile]
